Consider four compounds from patent publication US12459926B2, “THRβ receptor agonist compound and preparation method and use thereof” (Terns, Inc., priority 2018, dated 2025).

Where only a bound is given, the exact number is not on record here.

In general, half-life refers to the time in which the quantity being followed falls by half. A higher half-life goes with slow loss.

One data set deals with TRβ LBD (Homo sapiens, UniProt P10828). Conditions: ratio of THRα to THRβ binding force.
Data set [1] can be described thus: Pharmacokinetic evaluation in rats after intragastric infusion. The following applies: male SD rats, 2 mg/kg single dose, plasma. The class given is in vivo.
Procedure: Rats were used as test animals. […] The pharmacokinetic behaviors of the compounds of the present invention in rats were studied, and the pharmaceutical metabolism characteristics thereof were evaluated. […] The non-compartment model method (NCA) was utilized to calculate the pharmacokinetic parameters, particularly as shown in Table 2 below.
Drug Preparation: a certain amount of the drug was taken and added into a 2% Klucel LF+0.1% Tween 80 aqueous solution, to prepare a clear solution or a uniform suspension.
Dosage: SD rats were fasted overnight and given the drug by intragastric infusion at an administrated dose of 2 mg/kg and an administrated volume of 10 mL/kg each.
The heparinized sample tubes were then stored at −20° C., and the rats were allowed to eat food 2 h after the dosage.
Determination of contents of the compounds to be tested in the plasma of rats after intragastric infusion of the drugs at different concentrations: the plasma samples were thawed at room temperature, 50 μL each was taken and added into 130 μL of an internal standard working solution (1000 ng/mL, acetonitrile, tolbutamide), and the mixture was whirled for about 1 min and then centrifugated at 4° C. and 13000 rpm for 10 min. 50 μL of the supernatant was taken and mixed with 100 μL of 50% acetonitrile water, and then introduced for LC/MS/MS analysis.

TRβ LBD, sequence (P10828 217-461 limits assumed, other chains not shown): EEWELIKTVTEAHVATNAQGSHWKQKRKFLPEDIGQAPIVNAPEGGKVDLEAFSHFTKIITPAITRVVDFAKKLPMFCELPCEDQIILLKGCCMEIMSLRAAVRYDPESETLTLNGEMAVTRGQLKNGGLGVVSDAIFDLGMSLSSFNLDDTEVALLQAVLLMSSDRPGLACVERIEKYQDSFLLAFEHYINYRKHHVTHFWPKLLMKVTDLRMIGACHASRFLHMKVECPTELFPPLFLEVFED
TRβ LBD, sequence (P28702 whole entry partner, other chains not shown, the tested form may be a part): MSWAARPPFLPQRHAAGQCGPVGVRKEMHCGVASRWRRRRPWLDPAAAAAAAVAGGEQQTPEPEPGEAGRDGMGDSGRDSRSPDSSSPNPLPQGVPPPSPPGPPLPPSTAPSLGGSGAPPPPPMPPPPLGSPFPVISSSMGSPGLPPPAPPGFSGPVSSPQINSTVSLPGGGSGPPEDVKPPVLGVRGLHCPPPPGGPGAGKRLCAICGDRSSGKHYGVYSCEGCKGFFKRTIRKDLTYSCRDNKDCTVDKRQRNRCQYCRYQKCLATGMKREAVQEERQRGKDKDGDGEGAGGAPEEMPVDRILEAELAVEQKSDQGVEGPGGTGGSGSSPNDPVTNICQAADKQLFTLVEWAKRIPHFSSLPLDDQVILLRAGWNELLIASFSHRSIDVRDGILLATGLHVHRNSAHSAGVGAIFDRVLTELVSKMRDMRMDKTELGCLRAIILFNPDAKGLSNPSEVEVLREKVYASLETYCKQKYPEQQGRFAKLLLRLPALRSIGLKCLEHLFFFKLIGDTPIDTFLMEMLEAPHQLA
Procedure for TRβ LBD: Main Experimental Material and Apparatus:
All compounds were dissolved in dimethyl sulfoxide to prepare a 10 mmol stock solution.
For long-term storage, compounds shall be placed into a refrigerator at −20° C.
3.1 Preparation of 1× Reaction Buffer

With `N#Cc1nn(-c2cc(Cl)c(Oc3n[nH]c(=O)c4c(Cl)cccc34)c(Cl)c2)c(=O)[nH]c1=O` [Embodiment 10, 2-(3,5-dichloro-4-((5-chloro-4-oxo-3,4-dihydrophthalazin-1-yl)oxo)phenyl)-3,5-dioxo-2,3,4,5-tetrahydro-1,2,4-triazine-6-nitrile], on TRβ LBD, the “THRα/β selectivity (factor)” value is reported as more than 6.80 factor.
For the compound `N#Cc1nn(-c2cc(Cl)c(Oc3n[nH]c(=O)c4ccccc34)c(Cl)c2)c(=O)[nH]c1=O` [Embodiment 9, 2-(3,5-dichloro-4-((4-oxo-3,4-dihydrophthalazin-1-yl)oxo)phenyl)-3,5-dioxo-2,3,4,5-tetrahydro-1,2,4-triazine-6-nitrile], the “THRα/β selectivity (factor)” value on TRβ LBD is reported as more than 58.8 factor.
With `CC1(C)CCc2c(Oc3c(Cl)cc(-n4nc(C#N)c(=O)[nH]c4=O)cc3Cl)n[nH]c(=O)c21` [Embodiment 4, 2-(3,5-dichloro-4-((7,7-dimethyl-1-oxo-2,5,6,7-tetrahydro-1H-cyclopenta[d]pyridazin-4-yl)oxy)phenyl)-3,5-dioxo-2,3,4,5-tetrahydro-1,2,4-triazine-6-carbonitrile], in data set [1], the Curve area was found to be 9242 ± 1245 ng·h/mL and the Time to peak worked out at 5.33 ± 1.15 h. Further, the half-life in data set [1] (rat, po) is 5.14 ± 0.83 h.
In the case of `N#Cc1nn(-c2cc(Cl)c(Oc3n[nH]c(=O)c4c3CCCC4)c(Cl)c2)c(=O)[nH]c1=O` [Embodiment 1, 2-(3,5-dichloro-4-((4-oxo-3,4,5,6,7,8-hexahydrophthalazin-1-yl)oxy)phenyl)-3,5-dioxo-2,3,4,5-tetrahydro-1,2,4-triazine-6-nitrile], the “THRα/β selectivity (factor)” value on TRβ LBD is on record as more than 8.1 factor.
